# Source: patent publication US8501953B2, “PKM2 modulators for use in the treatment of cancer” (Agios Pharmaceuticals, Inc, priority 2009, dated 2013)
# Molecular target: PKM2 (Homo sapiens, UniProt P14618)
# Test: PKM2 Assay (activation; LDH-coupled, NADH absorbance at 340 nm)
# Format: biochemical
# Conditions: PKM2 50 ng/well, ADP 0.7 mM, PEP 0.15 mM, no FBP in Reaction Mix
# Protocol: • PKM2 stock enzyme solution was diluted in Reaction Buffer • 2 μL of compound was added into each well first, and then 180 μL of the Reaction Mix was added. • Reaction mixture with compound (without ADP) were incubated for 30 minutes at 4° C. • Plates were re-equilibrated to room temperature prior to adding 20 μL ADP to initiate the reaction. • Reaction progress was measured as changes in absorbance at 340 nm wavelength at room temperature (25° C.) Reaction Mix: PKM2 (50 ng/well), ADP (0.7 mM), PEP (0.15 mM), NADH (180 μM), LDH (2 units) in Reaction Buffer Reaction Buffer: 100 mM KCl, 50 mM Tris pH 7.5, 5 mM MgCl2, 1 mM DTT, 0.03% BSA.
# PKM2, sequence (P14618 whole entry): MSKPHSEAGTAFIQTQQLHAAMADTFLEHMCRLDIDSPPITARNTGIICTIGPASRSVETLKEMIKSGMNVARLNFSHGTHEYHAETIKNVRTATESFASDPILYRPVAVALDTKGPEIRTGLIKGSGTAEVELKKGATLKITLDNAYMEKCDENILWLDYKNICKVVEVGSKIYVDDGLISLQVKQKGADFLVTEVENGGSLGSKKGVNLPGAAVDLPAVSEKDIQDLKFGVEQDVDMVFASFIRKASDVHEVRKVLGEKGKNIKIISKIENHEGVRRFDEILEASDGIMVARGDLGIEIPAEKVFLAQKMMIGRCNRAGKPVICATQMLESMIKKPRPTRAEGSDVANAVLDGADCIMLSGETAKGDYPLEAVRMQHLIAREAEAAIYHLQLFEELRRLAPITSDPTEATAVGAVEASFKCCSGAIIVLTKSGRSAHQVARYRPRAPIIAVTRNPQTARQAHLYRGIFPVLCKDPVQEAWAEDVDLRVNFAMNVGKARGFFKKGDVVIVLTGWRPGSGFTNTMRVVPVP
row,SMILES,AC50
1,Cn1c(=O)oc2cc(S(=O)(=O)Nc3ccccn3)ccc21,10 to 50 µM
2,Cc1cc2oc(=O)n(C)c2cc1S(=O)(=O)Nc1ccc(Cl)c(C(F)(F)F)c1,1 to 10 µM
3,COc1ccc(Cl)cc1S(=O)(=O)N1CCN(S(=O)(=O)c2ccc3c(c2)sc(=O)n3C)CC1,1 to 10 µM
4,Cn1c(=O)oc2cc(S(=O)(=O)Nc3cccc4ncccc34)ccc21,10 to 50 µM
5,CCn1c(=O)oc2cc(S(=O)(=O)Nc3ccccc3Cl)c(C)cc21,1 to 10 µM
6,Cn1c(=O)oc2cc(S(=O)(=O)Nc3cccc(Cl)c3)ccc21,< 1 µM
7,Cc1cc(NS(=O)(=O)c2cc(CN3CCOCC3)c3c(c2)oc(=O)n3C)ccc1F,1 to 10 µM
8,CCc1cccc(NS(=O)(=O)c2ccc3c(c2)oc(=O)n3C)c1,< 1 µM
9,Cc1cc2oc(=O)n(C)c2cc1S(=O)(=O)N1CCN(C(=O)Cc2ccc(C(F)(F)F)cc2)CC1,> 100 µM
10,Cn1c(=O)sc2cc(S(=O)(=O)Nc3cccc(Cl)c3)ccc21,< 1 µM
11,COc1ccc(S(=O)(=O)N2CCN(S(=O)(=O)c3ccc4c(c3)sc(=O)n4C)CC2)cc1,< 1 µM
12,O=c1[nH]c2cc(NS(=O)(=O)c3cccc(Cl)c3)c(Cl)cc2o1,10 to 50 µM
13,Cc1cc(NS(=O)(=O)c2cc(C)c3c(c2)oc(=O)n3CCN2CCOCC2)ccc1F,1 to 10 µM
14,Cc1ccc(NS(=O)(=O)c2ccc3c(c2)oc(=O)n3C)cc1F,1 to 10 µM
15,Cc1cc2c(cc1S(=O)(=O)N1CCN(S(=O)(=O)c3c(F)cccc3F)CC1)oc(=O)n2C,1 to 10 µM
16,Cn1c(=O)sc2cc(S(=O)(=O)Nc3ccc4ncccc4c3)ccc21,1 to 10 µM
17,COc1ccc(Cl)cc1S(=O)(=O)N1CCCN(S(=O)(=O)c2ccc3c(c2)sc(=O)n3C)CC1,< 1 µM
18,Cc1cc2sc(=O)sc2cc1S(=O)(=O)Nc1ccc(Cl)cc1,1 to 10 µM
19,COCCn1c(=O)oc2cc(S(=O)(=O)Nc3cccc(Cl)c3)ccc21,< 1 µM
20,COc1ccc(Cl)cc1S(=O)(=O)Nc1cc2c(cc1C)oc(=O)n2C [drawing 47],< 1 µM
21,Cc1ccc(NS(=O)(=O)c2ccc3c(c2)oc(=O)n3C)cc1C,< 1 µM
22,COCCn1c(=O)oc2cc(C)c(S(=O)(=O)Nc3ccc(F)c(C)c3)cc21,1 to 10 µM
23,Cc1cc2oc(=O)n(C)c2cc1NS(=O)(=O)c1cc(Cl)cc(Cl)c1,10 to 50 µM
24,COc1ccc(Cl)cc1S(=O)(=O)Nc1ccc2oc(=O)[nH]c2c1,10 to 50 µM
25,Cn1c(=O)sc2cc(NS(=O)(=O)c3ccc(F)cc3)ccc21,10 to 50 µM

row,SMILES,AC50
1,Cc1cc2c(cc1S(=O)(=O)N1CCN(S(=O)(=O)c3ccc4c(c3)OCCO4)CC1)oc(=O)n2C,< 1 µM
2,O=c1[nH]c2cc(NS(=O)(=O)c3cccc(Cl)c3)ccc2s1,10 to 50 µM
3,Cn1c(=O)oc2cc(S(=O)(=O)Nc3ccc(Cl)c(Cl)c3)ccc21,1 to 10 µM
4,Cn1c(=O)oc2cc(S(=O)(=O)Nc3cc(F)cc(Cl)c3)ccc21,< 1 µM
5,Cc1cc(C)cc(NS(=O)(=O)c2cc3sc(=O)n(C)c3cc2Cl)c1,< 1 µM
6,Cc1cc(NS(=O)(=O)c2ccc3c(c2)sc(=O)n3C)ccc1F,< 1 µM
7,CCn1c(=O)oc2cc(C)c(NS(=O)(=O)c3cc(Cl)ccc3OC)cc21,10 to 50 µM
8,COc1ccc(C)cc1S(=O)(=O)Nc1ccc2oc(=O)[nH]c2c1,10 to 50 µM
9,COCCn1c(=O)oc2cc(C)c(S(=O)(=O)Nc3ccc(F)c(Cl)c3)cc21,1 to 10 µM
10,Cn1c(=O)sc2ccc(NS(=O)(=O)c3cccs3)cc21,10 to 50 µM
11,Cn1c(=O)oc2cc(F)c(S(=O)(=O)N3CCN(S(=O)(=O)c4ccc5c(c4)OCCO5)CC3)cc21,< 1 µM
12,COc1ccc(Cl)cc1S(=O)(=O)Nc1cc2[nH]c(=O)oc2cc1C,1 to 10 µM
13,Cc1cc2oc(=O)n(C)c2cc1S(=O)(=O)Nc1c(F)cccc1F,> 100 µM
14,Cn1c(=O)sc2ccc(NS(=O)(=O)c3c(F)cccc3F)cc21,1 to 10 µM
15,Cn1c(=O)oc2cc(F)c(S(=O)(=O)Nc3c(F)cccc3F)cc21,> 100 µM
16,Cc1cc2c(cc1S(=O)(=O)N1CCN(C(=O)COc3ccccc3)CC1)oc(=O)n2C,> 100 µM
17,Cn1c(=O)oc2cc(S(=O)(=O)N3CCN(S(=O)(=O)c4ccc5ccccc5c4)CC3)ccc21,< 1 µM
18,Cn1c(=O)oc2cc(F)c(S(=O)(=O)Nc3ccc(F)cc3)cc21,1 to 10 µM
19,Cc1cc(NS(=O)(=O)c2cc(C)c3c(c2)oc(=O)n3C)ccc1F,< 1 µM
20,Cn1c(=O)sc2cc(S(=O)(=O)N3CCN(S(=O)(=O)c4c(F)cccc4F)CC3)ccc21,< 1 µM
21,COc1ccc(Cl)cc1NS(=O)(=O)c1ccc2c(c1)oc(=O)n2C,1 to 10 µM
22,Cc1cc(S(=O)(=O)Nc2cccc(Cl)c2)cc2oc(=O)n(C)c12,< 1 µM
23,Cc1cc(NS(=O)(=O)c2cc(CN(C)C)c3c(c2)oc(=O)n3C)ccc1F,> 100 µM
24,Cn1c(=O)sc2cc(S(=O)(=O)Nc3cccc4ccccc34)ccc21,1 to 10 µM
25,O=c1[nH]c2cc(NS(=O)(=O)c3c(F)cccc3F)ccc2s1,10 to 50 µM

row,SMILES,AC50
1,COCCn1c(=O)oc2cc(S(=O)(=O)Nc3cccc(Cl)c3)cc(C)c21,< 1 µM
2,Cc1cc2oc(=O)n(C)c2cc1NS(=O)(=O)c1ccc(F)c(F)c1,> 100 µM
3,Cn1c(=O)oc2cc(S(=O)(=O)Nc3ccc4ccccc4c3)ccc21,1 to 10 µM
4,Cn1c(=O)oc2cc(S(=O)(=O)Nc3ccc(F)cc3)ccc21,1 to 10 µM
5,COc1ccc(Cl)cc1NS(=O)(=O)c1cc2c(cc1C)oc(=O)n2C,1 to 10 µM
6,COc1ccc(Cl)cc1S(=O)(=O)Nc1cc2c(cc1C)oc(=O)n2C [drawing 27],> 100 µM
7,Cn1c(=O)oc2cc(S(=O)(=O)Nc3cccc4ccccc34)ccc21,1 to 10 µM
8,O=c1oc2cc(S(=O)(=O)Nc3ccc(F)cc3)ccc2n1Cc1ccccc1,1 to 10 µM
9,CCn1c(=O)sc2ccc(NS(=O)(=O)c3cccs3)cc21,10 to 50 µM
10,COc1cc(NS(=O)(=O)c2ccc3c(c2)oc(=O)n3C)cc(OC)c1,< 1 µM
11,Cn1c(=O)oc2cc(S(=O)(=O)Nc3ccc(OC(F)(F)F)c(Br)c3)ccc21,1 to 10 µM
12,Cc1cc(C)cc(NS(=O)(=O)c2ccc3c(c2)oc(=O)n3C)c1,< 1 µM
13,COc1ccc(Cl)cc1S(=O)(=O)N1CCN(S(=O)(=O)c2ccc3c(c2)oc(=O)n3C)CC1,1 to 10 µM
14,Cc1cc2oc(=O)n(C)c2cc1S(=O)(=O)Nc1ccc(Cl)cc1,< 1 µM
15,Cc1cc2oc(=O)n(C)c2cc1NS(=O)(=O)c1cccc(Cl)c1,10 to 50 µM
16,CCn1c(=O)oc2cc(C)c(S(=O)(=O)Nc3cc(Cl)ccc3OC)cc21,10 to 50 µM
17,CCn1c(=O)oc2cc(S(=O)(=O)Nc3ccc(F)cc3)c(C)cc21,10 to 50 µM
18,CCn1c(=O)oc2cc(C)c(S(=O)(=O)Nc3ccccc3Cl)cc21,10 to 50 µM
19,CCn1c(=O)sc2ccc(NS(=O)(=O)c3cc(Cl)ccc3OC)cc21,1 to 10 µM
20,CN(Cc1ccccc1)S(=O)(=O)c1ccc2c(c1)oc(=O)n2C,1 to 10 µM
21,Cc1cc2oc(=O)n(C)c2cc1S(=O)(=O)Nc1ccccc1Cl,1 to 10 µM
22,Cn1c(=O)oc2cc(S(=O)(=O)Nc3ccc(F)c(F)c3)ccc21,< 1 µM
23,Cn1c(=O)oc2cc(S(=O)(=O)Nc3cccc(C(F)(F)F)c3)ccc21,1 to 10 µM
24,COCCn1c(=O)oc2cc(S(=O)(=O)Nc3ccc(F)c(C)c3)cc(C)c21,< 1 µM
25,Cn1c(=O)oc2cc(S(=O)(=O)Nc3cc(Cl)cc(Cl)c3)ccc21,< 1 µM

row,SMILES,AC50
1,Cc1cc2oc(=O)n(C)c2cc1S(=O)(=O)Nc1ccc(Cl)c(Cl)c1,1 to 10 µM
2,Cn1c(=O)oc2cc(S(=O)(=O)Nc3ccc4ncn(S(=O)(=O)c5cccc6c5oc(=O)n6C)c4c3)ccc21,1 to 10 µM
3,COCCn1c(=O)oc2cc(S(=O)(=O)Nc3ccc(F)c(Cl)c3)ccc21,< 1 µM
4,COc1ccc(Cl)cc1NS(=O)(=O)c1cc2sc(=O)sc2cc1C,1 to 10 µM
5,Cc1cc2oc(=O)n(C)c2cc1NS(=O)(=O)c1ccc(F)cc1,10 to 50 µM
6,COc1ccc(S(=O)(=O)N2CCCN(S(=O)(=O)c3ccc4c(c3)sc(=O)n4C)CC2)cc1,1 to 10 µM
7,Cn1c(=O)oc2cc(S(=O)(=O)Nc3ccc(OC(F)(F)F)c(Cl)c3)ccc21,1 to 10 µM
8,COc1ccc(C)cc1S(=O)(=O)Nc1cc2[nH]c(=O)oc2cc1C,10 to 50 µM
9,Cn1c(=O)oc2cc(S(=O)(=O)Nc3ccc4ncccc4c3)ccc21,1 to 10 µM
10,Cc1cc(C)cc(NS(=O)(=O)c2ccc3c(c2)oc(=O)n3CCc2ccccc2)c1,1 to 10 µM
11,Cc1cc2oc(=O)n(C)c2cc1S(=O)(=O)Nc1ccc2c(c1)OCO2,< 1 µM
12,Cn1c(=O)oc2cc(S(=O)(=O)Nc3ccccc3)ccc21,1 to 10 µM
13,Cn1c(=O)oc2cc(S(=O)(=O)Nc3ccc(F)c(Cl)c3)ccc21,< 1 µM
14,Cc1cc2sc(=O)sc2cc1S(=O)(=O)Nc1ccccc1F,10 to 50 µM
15,Cn1c(=O)sc2cc(S(=O)(=O)N3CCCN(S(=O)(=O)c4ccccc4)CC3)ccc21,1 to 10 µM
16,COCCn1c(=O)oc2cc(S(=O)(=O)Nc3ccc(F)c(C)c3)ccc21,< 1 µM
17,Cn1c(=O)sc2cc(NS(=O)(=O)c3cccs3)ccc21,10 to 50 µM
18,Cn1c(=O)sc2cc(S(=O)(=O)Nc3ccc4ccccc4c3)ccc21,< 1 µM
19,COc1ccc(Cl)cc1S(=O)(=O)Nc1ccc(NS(=O)(=O)c2cc3c(cc2C)oc(=O)n3C)cc1,> 100 µM
20,O=c1oc2cc(S(=O)(=O)Nc3ccc(Cl)cc3)ccc2n1Cc1ccccc1,1 to 10 µM
21,Cc1ccc(NS(=O)(=O)c2cc3c(cc2C)oc(=O)n3C)cc1C,< 1 µM
22,CCn1c(=O)sc2ccc(NS(=O)(=O)c3cc(C)ccc3OC)cc21,1 to 10 µM
23,Cc1cc2oc(=O)sc2cc1NS(=O)(=O)c1cccs1,10 to 50 µM
24,COc1ccc(Cl)cc1NS(=O)(=O)c1cc2c(cc1Cl)oc(=O)n2C,1 to 10 µM
25,CCc1cccc(NS(=O)(=O)c2cc3c(cc2C)oc(=O)n3C)c1,< 1 µM
